Patent publication US20240218019A1, “METHODS AND COMPOSITIONS COMPRISING MHC CLASS I PEPTIDES” (BOARD OF REGENTS, THE UNIVERSITY OF TEXAS SYSTEM, priority 2021, published 2024)

Test system: healthy donor PBMCs
Assay: IFNγ ELISpot assay with peptide-stimulated healthy donor PBMCs
Type: cell-based, human
Conditions: for ELISPOT positive: only neoAgs marked Tested with ELISPOT
Description: FIG. 10A-D. In vitro validation of predicted neoAgs immunogenicity using ELISpot IFNy assay. A) Schematic of peptide pool, stimulation, and cell culture workflow for ELISpot assays. PBMCs were exposed with the individual peptides from the immunogenic pools in the presence of IL-7 for 3 d, followed by expansion of neoAg-specific T cells in the presence of IL-2. On day 13, expanded cells (10^5 cells per well) were plated onto 96-well ELISpot plate coated with an IFNγ antibody and re-stimulated with the respective peptide for 24 h. IFNy secreting cells were analyzed as spot-forming units (SFUs), and the inventors chose ≥15 SFU produced by peptide stimulated cells over DMSO control cells as an indicator of the peptide immunogenicity. B) Quantification of IFNγ-secreting cells (SFU) obtained from ELISpot assay of 12 neoAg-stimulated PBMCs. ConcA and DMSO served as positive and negative controls. […] C) Selection of 110 predicted MHC-I neoAgs from 3 different categories and percentage of immunogenicity in vitro validation. […] “Most Immunogenic” refers to neoAgs selected from the top 100 prediction list of Most Immunogenic MHC-I neoAgs. “Most recurrent” refers to neoAgs selected from the top 100 prediction list of Most Recurrent MHC-I neoAgs. “Others” refers neoAgs that were predicted to have low immunogenicity and no recurrency. A total of 44 MHC-II neoAgs from 2 different categories were tested. […] “Most Immunogenic” refers to neoAgs selected from the top 100 prediction list of Most Immunogenic MHC-II neoAgs. “Most recurrent” refers to neoAgs selected from the top 100 prediction list of Most Recurrent MHC-II neoAgs. D) pMHC-pentamer staining. Expanded Pan-T cells from the healthy human donor were isolated and stained with WDTC1 neoAg peptide/A*02:01 Pentameric complexes and PerCP-conjugated CD8 antibody followed by flow cytometry analysis. Pan T-cells from healthy human donor PBMC (HLA-A*02:01) were isolated using negative magnetic selection. Isolated Pan T cells were stimulated and expanded with Opto-antigen presenting beads conjugated with WDTC1 neoAg-peptide. Viable Pan-T cells were gated based on FSC and SSC scatter and SYTOX Blue dead cells staining after doublet-exclusion. Flow cytometric plots representing CD8 positive (x-axis) and PE-biotin-pMHC-pentamer positive (y-axis) cells; unstained, unstimulated, and WDTC1 Opto-antigen presenting beads stimulated cells (left to right). The percentage of live CD8+ cells and CD8/WDTC1 neoAg-loaded MHC pentamer positive cells are shown.
FIG. 19A-B. In vitro validation of the pooled predicted neoAgs immunogenicity using ELISpot IFNγ assay. A) Schematic of peptide pool, stimulation, and cell culture workflow for ELISpot assays. All 154 peptides were grouped into 15 peptide pools to stimulate PBMCs from 3 healthy human donors as shown in the illustrations. IFNy secreting cells were analyzed as spot-forming units (SFUs), indicative of immunogenicity. B) Quantification of IFNγ-secreting cells (SFU) obtained from ELISpot assay. Pools 2, 3, 5, 6, 9, and 12 produced at least 15 or higher SFU/10^5 cells from two different PBMCs. […] ConcA and DMSO served as positive and negative controls.
Healthy donor PBMCs were stimulated with 15 peptide pools (Supplementary Table 13) to expand the neoAg-specific CD8^+ T-cells followed by quantitative ELISpot assays (FIG. 19A) to measure immunogenicity. […] To ascertain the immunogenicity of individual peptides within each immunogenic pool. a deconvolution protocol (see Methods) was implemented (FIG. 10A). […] Three percent of MHC-I neoAgs not predicted to be highly immunogenic or recurrent (Others). 5% of the top 100 most immunogenic MHC-II predicted neoags, and 6% of the top 100 most recurrent MHC-II predicted neoags elicited an immunogenic response as assessed by ELISpot assays. Additionally. 18% of all of these elispot-reactive neoags were also predicted from the validation set (FIG. 9C). […]

[1] = IFNγ ELISpot, peptide-stimulated healthy donor PBMCs
[2] = IFNγ ELISpot, only peptides marked Tested
[3] = IFNγ ELISpot, peptides marked Tested
[4] = IFNγ ELISpot, peptide-stimulated healthy donor PBMCs, peptides grouped in 15 pools
[5] = IFNγ secretion in healthy donor PBMCs vs unexposed control cells

With GLLHAVQEKL [compound 165] the “ELISPOT result (positive Yes/No) for peptides marked Tested” value (shortened to “ELISPOT result (positive Yes/No)”) [1] was “No”.

With 354 (PVTPLRVQSVLLLGV) [compound 354] the “ELISpot result (positive response) for peptides tested with ELISpot” value (IFNγ ELISpot, healthy donor PBMCs) was “No”.

For MSSIWGTMF [compound 140], the “ELISPOT result (positive Yes/No)” value [1] was “No”.

RTHPYSPKK [compound 171] was tested, and the “ELISPOT result (positive Yes/No)” value [1] was “No”.

229 (PALLLAEATHKASAL) [compound 229] was tested, and the Elispot reactive [2] was “No” and the Elispot reactive [3] was “No”.

In the case of RMASTSCAA [compound 161], the “ELISPOT result (positive Yes/No)” value [1] is reported as “No”.

VLEDTLLKI was tested, and the Elispot reactive [4] was “yes”.

RFCPASCSGCY [compound 170] was tested, and the “ELISPOT result (positive Yes/No)” value [1] was “No”.

For SPSRSTTAPV [compound 134], the “ELISPOT result (positive Yes/No)” value [1] was “No”.

For RLYVPLYSSK, the Elispot reactive [4] was “yes”.

For 328 (LLHWRIGGGTPLSIS) [compound 328], the Elispot reactive [3] was “No”.

For FLQEVFQA [compound 5], the “ELISPOT result (positive Yes/No)” value [1] was “No”.

In the case of KADQSESSL [compound 123], the Elispot reactive [3] is reported as “No”.

For YLGTPTWNC, the Elispot reactive [4] was “yes”.

RPACTCISM [compound 97] was tested, and the “ELISPOT result (positive Yes/No)” value [1] was “No” and the “ELISPOT positive” value was “No”.

With FMNSTVFHV [compound 3] the “ELISPOT result for peptides marked Tested with ELISPOT (Yes/No)” value (“ELISPOT result … (Yes/No)” below) [1] was “No”.

LLNPVTMNK [compound 204] was tested, and the Elispot reactive (IFNγ ELISpot, peptide tested) was “No”.

LLNPVTMNKA [compound 206] was tested, and the Elispot reactive (IFNγ ELISpot, peptide tested) was “No”.

322 (PVLFKADQSESSLSS) [compound 322] was tested, and the Elispot reactive [3] was “No”.

With SLINLTWTA [compound 66] the “ELISPOT result … (Yes/No)” value [1] was “No”.

In the case of RSVLEEMGL [compound 58], the “ELISPOT result (positive Yes/No)” value [1] is reported as “No” and the “ELISPOT result … (Yes/No)” value [1] is reported as “No”.

In the case of KTYMEMHY, the Elispot reactive [4] is reported as “yes”.

In the case of FQVHFLKSGGLPLVL [compound 221], the Elispot reactive [2] is reported as “Yes” and the Elispot reactive [5] is reported as “Yes”.

In the case of FLIDDNFKV [compound 10], the Elispot reactive (IFNγ ELISpot, peptide tested) is reported as “Yes” and the Elispot reactive [5] is reported as “Yes”.

With RQMLPTLSTL [compound 214] the Elispot reactive (IFNγ ELISpot, peptide tested) was “No”.

With ASLAHSDNF [compound 106] the “ELISPOT result (positive Yes/No)” value [1] was “No” and the “ELISPOT positive” value was “No”.

For MPCFTTALLL [compound 155], the “ELISPOT result (positive Yes/No)” value [1] was “No”.

MLLRLNLRK [compound 29] was tested, and the Elispot reactive [2] was “Yes”, the “ELISPOT result (positive Yes/No)” value [1] was “Yes” and the Elispot reactive [5] was “Yes”.

For VGMRETTGL [compound 119], the Elispot reactive [3] was “No”.

For KANRYFSPNF [compound 62], the “ELISPOT result (positive Yes/No)” value [1] was “Yes”, the “ELISPOT result … (Yes/No)” value [1] was “No” and the Elispot reactive [5] was “Yes”.

In the case of VMANVLTLNL, the Elispot reactive [4] is reported as “yes”.

With SLINLTWTA the Elispot reactive [4] was “yes”.

With LSAPEKITLF [compound 20] the Elispot reactive [2] was “Yes”, the “ELISPOT result (positive Yes/No)” value [1] was “Yes” and the Elispot reactive [5] was “Yes”.

For YLFAKAYLV [compound 201], the Elispot reactive (IFNγ ELISpot, peptide tested) was “No”.

With 334 (ALGLRILPPPLTSPS) [compound 334] the Elispot reactive [3] was “No”.

In the case of 219 (IDNIKRNHNLALGRQ) [compound 219], the Elispot reactive [2] is reported as “No”.

For YVAIRPLPY [compound 173], the “ELISPOT result (positive Yes/No)” value [1] was “No”.

For RAWRRFPLL [compound 118], the Elispot reactive [3] was “No”.

In the case of 218 (RWMVLRNSWRAVARM) [compound 218], the Elispot reactive [2] is reported as “No”.

For RLYKYDHNFV [compound 213], the Elispot reactive (IFNγ ELISpot, peptide tested) was “No”.

In the case of AMAENILAA [compound 150], the “ELISPOT result (positive Yes/No)” value [1] is reported as “No”.

336 (KEALFLQEVFQAERL) [compound 336] was tested, and the Elispot reactive [3] was “No”.

LAYWEKREAW [compound 177] was tested, and the “ELISPOT result (positive Yes/No)” value [1] was “No”.
